Test results published in patent US7109243B2 (IRM LLC, priority 2003, dated 2006).

How the values were obtained:
Cathepsin S = Cathepsin S (Homo sapiens, UniProt P25774); experiment: Cathepsin S inhibition assay (fluorogenic peptide substrate); type: biochemical; conditions: Table II, compounds of Formula I; read-out: Ki Cat. S
Outline: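 Ki values come from nonlinear fitting of inhibited hydrolysis rates, taking free and total inhibitor concentrations as equal. Rates measured as rising fluorescence at 380/450 nm after reaction start with 50 μM final acetyl-HPVK-aminocarbamoylcoumarin.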

Cathepsin K = target: T1, Cathepsin K (Homo sapiens, UniProt P43235); experiment: Cathepsin K inhibition assay (fluorogenic peptide substrate); selectivity ratio vs cathepsin S; type: biochemical; conditions: ratio of cathepsin K inhibition constant to cathepsin S inhibition constant; Table II
T1 sequence (P43235 115-329): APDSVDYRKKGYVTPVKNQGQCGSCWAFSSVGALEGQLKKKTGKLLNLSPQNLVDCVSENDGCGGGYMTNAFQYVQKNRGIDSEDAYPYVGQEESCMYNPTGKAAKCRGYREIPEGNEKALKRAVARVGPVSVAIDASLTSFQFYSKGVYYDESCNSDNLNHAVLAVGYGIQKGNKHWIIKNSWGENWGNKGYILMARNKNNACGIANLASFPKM
Outline: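 Inhibition constants for competitive inhibitors come from apparent values fitted to enzyme progress curves. Substrate, acetyl-Lys-His-Pro-Lys-aminocarbamoylcoumarin (40 μM final), starts the reaction; fluorescence rise read at 380 nm excitation, 450 nm emission. Selectivity ratio: other cathepsin constant over cathepsin S constant.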

Chain of Cathepsin S (P25774 115-331, species assumed): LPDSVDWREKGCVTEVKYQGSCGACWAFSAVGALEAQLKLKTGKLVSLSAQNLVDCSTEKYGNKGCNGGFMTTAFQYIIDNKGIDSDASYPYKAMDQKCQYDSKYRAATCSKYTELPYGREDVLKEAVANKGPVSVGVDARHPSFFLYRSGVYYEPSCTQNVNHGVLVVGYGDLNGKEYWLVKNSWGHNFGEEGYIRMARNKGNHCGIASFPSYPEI

SMILES: O=C(Cc1ccc(F)cc1F)N[C@@H](CC1CCCCC1)C(=O)NCCNc1ccc(F)cc1 [Compound 100, 3-Cyclohexyl-2-(S)-[2-(2,4-difluoro-phenyl)-acetylamino]-N-[2-(4-fluoro-phenylamino)-ethyl]-propionamide]
- Ki (Cathepsin S): < 0.1 µM
- Selectivity for Cat. S over Cat. K (Cathepsin K): +++ (+++, >1000)

SMILES: COc1ccc(NCCNC(=O)[C@H](Cc2ccccc2)NC(=O)CC2C=CCC2)cc1 (stereo partly drawn) [Compound 82, (S)-2-(2-Cyclopent-2-enyl-acetylamino)-N-[2-(4-methoxy-phenylamino)-ethyl]-3-phenyl-propionamide]
- Ki (Cathepsin S): < 1 µM
- Selectivity for Cat. S over Cat. K (Cathepsin K): + (+, >10)

SMILES: COc1ccc(NCCNC(=O)[C@H](Cc2ccccc2Cl)NC(=O)c2ccc(-c3cccc(C(F)(F)F)c3)o2)cc1 [Compound 2, N-((S)-1-(2-(4-methoxyphenylamino)ethylcarbamoyl)-2-(2-chlorophenyl)ethyl)-5-(3-(trifluoromethyl)phenyl)furan-2-carboxamide]
- Ki (Cathepsin S): < 0.1 µM
- Selectivity for Cat. S over Cat. K (Cathepsin K): + (+, >10)

SMILES: O=C(N[C@@H](CC1CCCCC1)C(=O)NCCNc1ccc(OC(F)(F)F)cc1)c1ccc(-c2cccc(C(F)(F)F)c2)o1 [Compound 246, (S)-5-(3-Trifluoromethyl-phenyl)-furan-2-carboxylic acid {2-cyclohexyl-1-[2-(4-trifluoromethoxy-phenylamino)-ethylcarbamoyl]-ethyl}-amide]
- Ki (Cathepsin S): < 0.1 µM
- Selectivity for Cat. S over Cat. K (Cathepsin K): ++ (++, >100)

SMILES: O=C(N[C@@H](CC1CCCCC1)C(=O)NCCNc1ccc(OC(F)(F)F)cc1)c1cccc(CN2CCOCC2)c1 [Compound 200, (S)-N-{2-Cyclohexyl-1-[2-(4-trifluoromethoxy-phenylamino)-ethylcarbamoyl]-ethyl}-3-morpholin-4-ylmethyl-benzamide]
- Ki (Cathepsin S): < 0.1 µM
- Selectivity for Cat. S over Cat. K (Cathepsin K): + (+, >10)

SMILES: COc1ccc(NCCNC(=O)[C@H](Cc2ccccc2)NC(=O)Nc2ccc(C(C)=O)cc2)cc1 [Compound 103, (S)-2-[3-(4-Acetyl-phenyl)-ureido]-N-[2-(4-methoxy-phenylamino)-ethyl]-3-phenyl-propionamide]
- Ki (Cathepsin S): < 1 µM
- Selectivity for Cat. S over Cat. K (Cathepsin K): ++ (++, >100)

SMILES: COc1ccc(NCCNC(=O)[C@H](CC2CCCCC2)NC(=O)c2cccc(Cl)c2)cc1 [Compound 118, (S)-3-Chloro-N-{2-cyclohexyl-1-[2-(4-methoxy-phenylamino)-ethylcarbamoyl]-ethyl}-benzamide]
- Ki (Cathepsin S): < 0.1 µM
- Selectivity for Cat. S over Cat. K (Cathepsin K): ++ (++, >100)

SMILES: COc1ccc(NCCNC(=O)[C@H](CC2CCCCC2)NC(=O)c2ccccc2F)cc1 [Compound 145, (S)-N-{2-Cyclohexyl-1-[2-(4-methoxy-phenylamino)-ethylcarbamoyl]-ethyl}-2-fluoro-benzamide]
- Ki (Cathepsin S): < 0.1 µM
- Selectivity for Cat. S over Cat. K (Cathepsin K): +++ (+++, >1000)

SMILES: CC(C(=O)N[C@@H](CC1CCCCC1)C(=O)NCCNc1ccc(F)cc1)c1ccc(F)cc1 (stereo partly drawn) [Compound 310, N-{2-cyclohexyl-1-(S)-[2-(4-fluoro-phenylamino)-ethylcarbamoyl]-ethyl}-2-(4-fluoro-phenyl)-propionamide]
- Ki (Cathepsin S): < 0.1 µM
- Selectivity for Cat. S over Cat. K (Cathepsin K): ++ (++, >100)

SMILES: O=C(Cc1cccc(C(F)(F)F)c1)N[C@@H](CC1CCCCC1)C(=O)NCCNc1ccc(F)cc1 [Compound 323, 3-Cyclohexyl-N-[2-(4-fluoro-phenylamino)-ethyl]-2-(S)-[2-(3-trifluoromethyl-phenyl)-acetylamino]-propionamide]
- Ki (Cathepsin S): < 0.1 µM
- Selectivity for Cat. S over Cat. K (Cathepsin K): ++ (++, >100)

SMILES: COc1ccc(NCCNC(=O)C(NC(=O)c2cccc(C)c2)c2cccs2)cc1 (stereo not drawn) [Compound 226, N-{[2-(4-Methoxy-phenylamino)-ethylcarbamoyl]-thiophen-2-yl-methyl}-3-methyl-benzamide]
- Ki (Cathepsin S): < 10 µM
- Selectivity for Cat. S over Cat. K (Cathepsin K): + (+, >10)

SMILES: CCCc1ccc(C(=O)N[C@@H](CC2CCCCC2)C(=O)NCCNc2ccc(OC)cc2)cc1 [Compound 151, (S)-N-{2-Cyclohexyl-1-[2-(4-methoxy-phenylamino)-ethylcarbamoyl]-ethyl}-4-propyl-benzamide]
- Ki (Cathepsin S): < 0.1 µM
- Selectivity for Cat. S over Cat. K (Cathepsin K): + (+, >10)

SMILES: Cc1cc(C)nc(N(C)c2cccc(C(=O)N[C@@H](CC3CCCCC3)C(=O)NCCNc3ccc(OC(F)(F)F)cc3)c2)n1 [Compound 71, N-(S)-{2-cyclohexyl-1-[2-(4-trifluoromethoxy-phenylamino)-ethylcarbamoyl]-ethyl}-3-[(4,6-dimethyl-pyrimidin-2-yl)-methyl-amino]-benzamide]
- Ki (Cathepsin S): < 0.1 µM
- Selectivity for Cat. S over Cat. K (Cathepsin K): ++ (++, >100)

SMILES: COc1ccc(NCCNC(=O)[C@H](Cc2ccccc2)NC(=O)c2cccc(C)c2Cl)cc1 [Compound 16, (S)-2-Chloro-N-{1-[2-(4-methoxy-phenylamino)-ethylcarbamoyl]-2-phenyl-ethyl}-3-methyl-benzamide]
- Ki (Cathepsin S): < 1 µM
- Selectivity for Cat. S over Cat. K (Cathepsin K): + (+, >10)

SMILES: COc1ccc(NCCNC(=O)[C@H](Cc2ccc(-c3cccc([N+](=O)[O-])c3)cc2)NC(=O)c2cccc(C)c2)cc1 [Compound 271, (S)-N-[1-[2-(4-Methoxy-phenylamino)-ethylcarbamoyl]-2-(3′-nitro-biphenyl-4-yl)-ethyl]-3-methyl-benzamide]
- Ki (Cathepsin S): < 1 µM
- Selectivity for Cat. S over Cat. K (Cathepsin K): ++ (++, >100)

SMILES: COc1ccc(NCCNC(=O)[C@H](CC2CCCCC2)NC(=O)c2cc(C)c(OC)c(C)c2)cc1 [Compound 111, (S)-N-{2-Cyclohexyl-1-[2-(4-methoxy-phenylamino)-ethylcarbamoyl]-ethyl}-4-methoxy-3,5-dimethyl-benzamide]
- Ki (Cathepsin S): < 0.1 µM
- Selectivity for Cat. S over Cat. K (Cathepsin K): ++ (++, >100)

SMILES: COc1ccc(NCCNC(=O)[C@H](Cc2ccccc2)NC(=O)c2cccc(Br)c2)cc1 [Compound 78, (S)-3-Bromo-N-{1-[2-(4-methoxy-phenylamino)-ethylcarbamoyl]-2-phenyl-ethyl}-benzamide]
- Ki (Cathepsin S): < 0.1 µM
- Selectivity for Cat. S over Cat. K (Cathepsin K): + (+, >10)

SMILES: COc1ccc(NCCNC(=O)[C@H](CC2CCCCC2)NC(=O)c2ccc(-c3cccc(OC)c3)cc2)cc1 [Compound 172, (S)-3′-Methoxy-biphenyl-4-carboxylic acid {2-cyclohexyl-1-[2-(4methoxy-phenylamino)-ethylcarbamoyl]-ethyl}-amide]
- Ki (Cathepsin S): < 0.1 µM
- Selectivity for Cat. S over Cat. K (Cathepsin K): +++ (+++, >1000)

SMILES: COc1ccc(NCCNC(=O)C(NC(=O)c2ccc(-c3cccc(C(F)(F)F)c3)o2)c2ccccc2)cc1 (racemic) [Compound 9, (±)-N-((2-(4-methoxyphenylamino)ethylcarbamoyl)(phenyl)-methyl)-5-(3-(trifluoromethyl)phenyl)furan-2-carboxamide]
- Ki (Cathepsin S): < 1 µM
- Selectivity for Cat. S over Cat. K (Cathepsin K): + (+, >10)

SMILES: CS(=O)(=O)c1ccc(C(=O)N[C@@H](CC2CCCCC2)C(=O)NCCNc2ccc(OC(F)(F)F)cc2)cc1 [Compound 19, N-(S)-{2-cyclohexyl-1-[2-(4-trifluoromethoxy-phenylamino)-ethylcarbamoyl]-ethyl}-4-methanesulfonyl-benzamide]
- Ki (Cathepsin S): < 1 µM
- Selectivity for Cat. S over Cat. K (Cathepsin K): + (+, >10)

SMILES: COc1ccc(NCCNC(=O)[C@H](Cc2ccc(Oc3ccc(C)cc3)cc2)NC(=O)c2cccc(C)c2)cc1 [Compound 45, (S)-N-[1-[2-(4-Methoxy-phenylamino)-ethylcarbamoyl]-2-(4-p-tolyloxy-phenyl)-ethyl]-3-methyl-benzamide]
- Ki (Cathepsin S): < 0.1 µM
- Selectivity for Cat. S over Cat. K (Cathepsin K): +++ (+++, >1000)

SMILES: O=C(Cc1ccc(F)cc1Cl)N[C@@H](CC1CCCCC1)C(=O)NCCNc1ccc(F)cc1 [Compound 107, 2-(S)-[2-(2-Chloro-4-fluoro-phenyl)-acetylamino]-3-cyclohexyl-N-[2-(4-fluoro-phenylamino)-ethyl]-propionamide]
- Ki (Cathepsin S): < 0.1 µM
- Selectivity for Cat. S over Cat. K (Cathepsin K): +++ (+++, >1000)

SMILES: COc1ccc(NCCNC(=O)[C@H](Cc2ccccc2)NC(=O)Nc2ccc(Oc3ccccc3)cc2)cc1 [Compound 89, (S)-N-[2-(4-Methoxy-phenylamino)-ethyl]-2-[3-(4-phenoxy-phenyl)-ureido]-3-phenyl-propionamide]
- Ki (Cathepsin S): < 1 µM
- Selectivity for Cat. S over Cat. K (Cathepsin K): + (+, >10)

SMILES: COc1ccc(NCCNC(=O)[C@H](CCC2CCCCC2)NC(=O)[C@@H](C)c2ccccc2)cc1 [Compound 128]
- Ki (Cathepsin S): < 0.1 µM
- Selectivity for Cat. S over Cat. K (Cathepsin K): +++ (+++, >1000)

SMILES: O=C(N[C@@H](CC1CCCCC1)C(=O)NCCNc1ccc(OC(F)(F)F)cc1)c1ccc(-c2ccccc2F)s1 [Compound 201, (S)-5-(2-Fluoro-phenyl)-thiophene-2-carboxylic acid {2-cyclohexyl-1-[2-(4-trifluoromethoxy-phenylamino)-ethylcarbamoyl]-ethyl}-amide]
- Ki (Cathepsin S): < 0.1 µM
- Selectivity for Cat. S over Cat. K (Cathepsin K): ++ (++, >100)

SMILES: COc1ccc(NCCNC(=O)[C@H](CC2CCCCC2)NC(=O)c2cnn(-c3ccc(Cl)cc3)c2C)cc1 [Compound 163, (S)-1-(4-Chloro-phenyl)-5-methyl-1H-pyrazole-4-carboxylic acid {2-cyclohexyl-1-[2-(4-methoxy-phenylamino)-ethylcarbamoyl]-ethyl}-amide]
- Ki (Cathepsin S): < 0.1 µM
- Selectivity for Cat. S over Cat. K (Cathepsin K): + (+, >10)

SMILES: COc1ccc(NCCNC(=O)[C@H](CC2CCCCC2)NC(=O)CNc2ccccc2)cc1 [Compound 159, (S)-3-Cyclohexyl-N-[2-(4-methoxy-phenylamino)-ethyl]-2-(2-phenylamino-acetylamino)-propionamide]
- Ki (Cathepsin S): < 0.1 µM
- Selectivity for Cat. S over Cat. K (Cathepsin K): +++ (+++, >1000)
